Reference: patent publication US11977067B2 (Radius Health, Inc., priority 2017, dated 2024)
Several values for one entry are separate records, joined by “and”; a condition that tells them apart may be missing. Equal entries are not always repeated. Blank lines part the entries; values can stand above or below the molecule they belong to.

Experiments:
PTH receptors = molecular target: T1, PTH receptors (Homo sapiens, UniProt Q03431); assay: qualified cell base potency assay for functional PTH activity (cAMP production); type: cell-based
T1 sequence (Q03431 27-593): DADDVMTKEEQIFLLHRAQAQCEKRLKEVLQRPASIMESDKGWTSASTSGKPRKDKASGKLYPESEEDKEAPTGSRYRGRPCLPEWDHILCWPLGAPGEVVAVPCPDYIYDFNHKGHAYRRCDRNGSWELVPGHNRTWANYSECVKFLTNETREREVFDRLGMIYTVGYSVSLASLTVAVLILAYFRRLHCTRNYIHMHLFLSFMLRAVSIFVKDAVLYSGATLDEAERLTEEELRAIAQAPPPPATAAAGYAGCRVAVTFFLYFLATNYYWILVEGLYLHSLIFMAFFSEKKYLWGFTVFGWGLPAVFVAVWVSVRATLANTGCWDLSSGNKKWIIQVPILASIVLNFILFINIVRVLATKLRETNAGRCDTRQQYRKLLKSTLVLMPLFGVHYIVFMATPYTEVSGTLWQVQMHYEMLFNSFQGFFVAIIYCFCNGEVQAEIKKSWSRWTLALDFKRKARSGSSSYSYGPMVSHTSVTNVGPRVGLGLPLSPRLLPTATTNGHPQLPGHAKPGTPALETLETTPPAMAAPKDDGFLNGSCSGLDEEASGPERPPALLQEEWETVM

[1] = (beta-Asp10) abaloparatide levels in formulated registration batches at different storage conditions; type: physicochemical
[2] = rate constants and Arrhenius analysis of (beta-Asp10) abaloparatide formation; type: physicochemical
Procedure: Rate constants at each temperature are tabulated in the top row of Table 18.
An Arrhenius plot was constructed (FIG. 8) by plotting the natural logarithm of the rate constants (k) for three storage temperatures, against the reciprocals of those temperatures in Kelvin. […] The activation energy, Ea, derived with high accuracy from the slope of a linear regression best fit of the Arrhenius plot is Ea=91,670 J/mol. […] For example, the observed rate constant at 5° C., Kobs=0.0655%/month agrees well with the predicted value, Kcalc=0.0644%/month, with only a 0.0011% absolute difference and a 1.7% relative difference.
The amount of b-Asp10 in the API must be determined with rigor and set accordingly to achieve the desired stability profile after pre-specified storage conditions. Previously, this could not be done as the methods used were insufficient for its identification and quantification. Therefore, not only has a new degradant been discovered but the methods described herein have allowed the formation rate equation to be determined and thus allow for setting its specification in the API when coupled with a desired storage stability profile. […] Similarly, the API, once formulated into cartridges is tested for purity including evaluation for (b-Asp10) right after the cartridge is formulated. This is also an important evaluation point for (b-Asp10) because the formulation itself requires time to complete mixing and filling prior to refrigeration.

agonist on PTH receptors (PTH receptors): active per se as an agonist
EC50 (PTH receptors; production of cAMP as a measure of bioactivity): 0.832 nM
(beta-Asp10) abaloparatide level (mean) in formulated samples ([1]; 5° C. long term storage condition, 0 M): 0.3%
(beta-Asp10) abaloparatide level (mean) in formulated samples ([1]; 5° C. long term storage condition, 3 M): 0.5%
(beta-Asp10) abaloparatide level (mean) in formulated samples ([1]; 5° C. long term storage condition, 6 M): 0.76%
(beta-Asp10) abaloparatide level (mean) in formulated samples ([1]; 5° C. long term storage condition, 9 M): 0.96%
(beta-Asp10) abaloparatide level (mean) in formulated samples ([1]; 5° C. long term storage condition, 12 M): 1.03%
(beta-Asp10) abaloparatide level (mean) in formulated samples ([1]; 5° C. long term storage condition, 18 M): 1.66%
(beta-Asp10) abaloparatide level (mean) in formulated samples ([1]; 5° C. long term storage condition, 24 M): 1.93%
(beta-Asp10) abaloparatide level (mean) in formulated samples ([1]; 25° C. accelerated condition, 0 M): 0.3%
(beta-Asp10) abaloparatide level (mean) in formulated samples ([1]; 25° C. accelerated condition, 1 M): 1.26%
(beta-Asp10) abaloparatide level (mean) in formulated samples ([1]; 25° C. accelerated condition, 3 M): 3.26%
(beta-Asp10) abaloparatide level (mean) in formulated samples ([1]; 25° C. accelerated condition, 6 M): 6.3%
(beta-Asp10) abaloparatide level (mean) in formulated samples ([1]; 25° C. accelerated condition, 9 M): 9.43%
(beta-Asp10) abaloparatide level (mean) in formulated samples ([1]; 25° C. accelerated condition, 12 M): 11.96%
(beta-Asp10) abaloparatide level (mean) in formulated samples ([1]; 25° C. accelerated condition, 18 M): 16.73%
(beta-Asp10) abaloparatide level (mean) in formulated samples ([1]; 25° C. accelerated condition, 24 M): 20.73%
(beta-Asp10) abaloparatide level (mean) in formulated samples ([1]; 40° C. stress condition, 0 M): 0.3%
(beta-Asp10) abaloparatide level (mean) in formulated samples ([1]; 40° C. stress condition, 1 M): 7.10%
(beta-Asp10) abaloparatide level (mean) in formulated samples ([1]; 40° C. stress condition, 3 M): 18.76%
(beta-Asp10) abaloparatide level (mean) in formulated samples ([1]; 40° C. stress condition, 6 M): 32.9%
Structure (SMILES): CC[C@H](C)[C@H](NC(=O)[C@H](CO)NC(=O)[C@H](CCCCN)NC(=O)CNC(=O)[C@H](CCCCN)NC(=O)C[C@H](NC(=O)[C@H](Cc1c[nH]cn1)NC(=O)[C@H](CC(C)C)NC(=O)[C@H](CC(C)C)NC(=O)[C@H](CCC(N)=O)NC(=O)[C@H](Cc1c[nH]cn1)NC(=O)[C@H](CCC(=O)O)NC(=O)[C@H](CO)NC(=O)[C@@H](NC(=O)[C@H](C)N)C(C)C)C(=O)O)C(=O)N[C@@H](CCC(N)=O)C(=O)N[C@@H](CC(=O)O)C(=O)N[C@@H](CC(C)C)C(=O)N[C@@H](CCCNC(=N)N)C(=O)N[C@@H](CCCNC(=N)N)C(=O)N[C@@H](CCCNC(=N)N)C(=O)N[C@@H](CCC(=O)O)C(=O)N[C@@H](CC(C)C)C(=O)N[C@@H](CC(C)C)C(=O)N[C@@H](CCC(=O)O)C(=O)N[C@@H](CCCCN)C(=O)N[C@@H](CC(C)C)C(=O)N[C@@H](CC(C)C)C(=O)NC(C)(C)C(=O)N[C@@H](CCCCN)C(=O)N[C@@H](CC(C)C)C(=O)N[C@@H](Cc1c[nH]cn1)C(=O)N[C@H](C(=O)N[C@@H](C)C(N)=O)[C@@H](C)O [(beta-Asp10) abaloparatide, [b-Asp^10, Glu^22,25, Leu^23,28,31, Aib^29, Lys^26,30]hPTHrP(1-34)NH2)]
Difference (%) between kobs and Kcalc (relative difference) ([2]; 5° C.): 2.3%
Kcalc (%/month), rate constant calculated from activation energy ([2]; 5° C.): 0.0644 %/month and 0.0674 %/month
absolute difference between Kobs and Kcalc ([2]; 5° C.): 0.0011%
kobs (%/month), observed rate constant for formation of (beta-Asp10) abaloparatide ([2]; 5° C.): 0.0655 %/month and 0.0690 %/month
Difference (%) between kobs and Kcalc ([2]; 25° C.): −5.6%
Kcalc (%/month), rate constant calculated from activation energy ([2]; 25° C.): 0.938 %/month
kobs (%/month), observed rate constant for formation of (beta-Asp10) abaloparatide ([2]; 25° C.): 0.993 %/month
Difference (%) between kobs and Kcalc ([2]; 40° C.): 3.5%
Kcalc (%/month), rate constant calculated from activation energy ([2]; 40° C.): 5.19 %/month
kobs (%/month), observed rate constant for formation of (beta-Asp10) abaloparatide ([2]; 40° C.): 5.38 %/month
activation energy, Ea ([2]; slope of linear regression of Arrhenius plot, 5° C. to 40° C.): 91,670 J/mol

Structure (SMILES): CC[C@H](C)[C@H](NC(=O)[C@H](CO)NC(=O)[C@H](CCCCN)NC(=O)CNC(=O)[C@H](CCCCN)NC(=O)[C@H](CC(=O)O)NC(=O)[C@H](Cc1c[nH]cn1)NC(=O)[C@H](CC(C)C)NC(=O)[C@H](CC(C)C)NC(=O)[C@H](CCC(N)=O)NC(=O)[C@H](Cc1c[nH]cn1)NC(=O)[C@H](CCC(=O)O)NC(=O)[C@H](CO)NC(=O)[C@@H](NC(=O)[C@H](C)N)C(C)C)C(=O)N[C@@H](CCC(N)=O)C(=O)N[C@@H](CC(=O)O)C(=O)N[C@@H](CC(C)C)C(=O)N[C@@H](CCCNC(=N)N)C(=O)N[C@@H](CCCNC(=N)N)C(=O)N[C@@H](CCCNC(=N)N)C(=O)N[C@@H](CCC(=O)O)C(=O)N[C@@H](CC(C)C)C(=O)N[C@@H](CC(C)C)C(=O)N[C@@H](CCC(=O)O)C(=O)N[C@@H](CCCCN)C(=O)N[C@@H](CC(C)C)C(=O)N[C@@H](CC(C)C)C(=O)NC(C)(C)C(=O)N[C@@H](CCCCN)C(=O)N[C@@H](CC(C)C)C(=O)N[C@@H](Cc1c[nH]cn1)C(=O)N[C@H](C(=O)N[C@@H](C)C(N)=O)[C@@H](C)O [abaloparatide, [Glu^22,25, Leu^23,28,31, Aib^29, Lys^26,30]hPTHrP(1-34)NH2)]
kinetic order of isomerization of abaloparatide to (beta-Asp10) isomer ([2]; formulated drug product): zero order kinetics
